Assay results as given in publication PMC7993833, “EDP-938, a novel nucleoprotein inhibitor of respiratory syncytial virus, demonstrates potent antiviral activities in vitro and in a non-human primate model” (PLoS Pathogens, 2021).
Where two headings read alike, the source gives them in different places.

Assays:
[1] = test system: RSV-A Long; assay: RT-qPCR viral load assay, RSV-A Long in HEp-2 cells; format: cell-based; details: human respiratory syncytial virus, HEp-2, RT-qPCR
[2] = test system: RSV-A M37; assay: CPE assay, RSV-A M37 in HEp-2 cells; format: cell-based; details: human respiratory syncytial virus
Protocol: (§1) HEp-2, Vero, and BHK were seeded at 8,000 cells per well (cpw) in growth medium (Dulbecco’s Modified Eagle Medium (DMEM) with 1% GlutaMAX, 1% Penicillin/Streptomycin (P/S), 1% Non-Essential Amino Acids (NEAA), 10% Fetal Bovine Serum (FBS)) or (Minimum Essential Medium (MEM) with 10% FBS, 1% NEAA, 1% P/S) or (Eagle’s Minimum Essential Medium with L-Glutamine, with 10% FBS, 1% P/S) respectively. A549 seeded at 3,000 cpw in F-12K Kaighn’s Modification nutrient mixture with 10% FBS, 1% NEAA, 1% P/S. Cells seeded at time of infection in 96-well plates, final well volume 100μL. Compounds suspended in DMSO, serially diluted and added to wells at 0.5% final DMSO concentration. Viral stocks stabilized with 25% sucrose, previously titered using plaque assay, were added at desired MOI. Sucrose added to cells-only control wells to match percent added with virus. Unless otherwise noted, RSV-A strains were tested at 0.1 MOI and incubated for 5 days in a 37°C, 5% CO2 humidified incubator, and RSV-B at 0.5 MOI for 6 days. Cytopathic effect (CPE) determined using ATPlite (Perkin Elmer) measured with Envision luminometer. For RT-qPCR, RNA was extracted from whole well using Ambion RNAqueous-96 Automated Kit, and RT-qPCR run using Applied Biosystems TaqMan RNA-to-CT 1-Step Kit. […] All EC50s were calculated using the XLFit four-parameter logistic model 200 in Microsoft Excel.

[3] = test system: RSV-B VR-955; assay: RT-qPCR assay, RSV-B VR-955 in HEp-2 cells; format: cell-based; details: human respiratory syncytial virus
Protocol: as §1

[4] = test system: RSV-B VR-955; assay: CPE assay, RSV-B VR-955 in A549 cells; format: cell-based; details: human respiratory syncytial virus
Protocol: as §1

[5] = test system: RSV-A2; assay: CPE assay, RSV-A2 in Vero cells; format: cell-based; details: human respiratory syncytial virus
Protocol: as §1

[6] = test system: RSV-A2; assay: RT-qPCR assay, RSV-A2 in Vero cells; format: cell-based; details: human respiratory syncytial virus
Protocol: as §1

[7] = test system: RSV-A M37; assay: RT-qPCR assay, RSV-A M37 in primary HBECs; format: cell-based; details: human respiratory syncytial virus, primary HBEC
[8] = test system: RSV-A Long; assay: RT-qPCR assay, RSV-A Long in primary neonatal lamb bronchial epithelial cells; format: cell-based; details: human respiratory syncytial virus, Epithelial cell
[9] = test system: broad panel of other viruses; format: cell-based
[10] = test system: RSV-A clinical isolates; assay: Susceptibility of USA-derived RSV-A clinical isolates; format: cell-based; details: human respiratory syncytial virus
Protocol: Serial dilutions of the compound were added to cells infected with RSV-A isolates at an MOI of 0.1 (except for isolate 629-9-2 at an MOI of 0.01) or RSV-B isolates at an MOI of 0.5 (expect for isolate 629-24/2007 at an MOI of 0.0044) and were treated for 5 or 6 days, respectively. […] This is consistent with the fact that the viral N protein, which is the putative target of the antiviral effect of EDP-938, is the most conserved RSV protein [11].
HEp-2, Vero, and BHK were seeded at 8,000 cells per well (cpw) in growth medium (Dulbecco’s Modified Eagle Medium (DMEM) with 1% GlutaMAX, 1% Penicillin/Streptomycin (P/S), 1% Non-Essential Amino Acids (NEAA), 10% Fetal Bovine Serum (FBS)) or (Minimum Essential Medium (MEM) with 10% FBS, 1% NEAA, 1% P/S) or (Eagle’s Minimum Essential Medium with L-Glutamine, with 10% FBS, 1% P/S) respectively. A549 seeded at 3,000 cpw in F-12K Kaighn’s Modification nutrient mixture with 10% FBS, 1% NEAA, 1% P/S. Cells seeded at time of infection in 96-well plates, final well volume 100μL. Compounds suspended in DMSO, serially diluted and added to wells at 0.5% final DMSO concentration. […] Cytopathic effect (CPE) determined using ATPlite (Perkin Elmer) measured with Envision luminometer. […] All EC50s were calculated using the XLFit four-parameter logistic model 200 in Microsoft Excel. […]

[11] = test system: RSV-A clinical isolates; assay: RSV Virospot reduction assay (ViroClinics), RSV-A isolates from the Netherlands; format: cell-based; details: human respiratory syncytial virus, 10 RSV-A strains from the Netherlands
Protocol: To further expand testing against clinical isolates, the compound was assayed against a panel of 10 RSV-A and 10 RSV-B strains mainly isolated from children of age 2–200 weeks in the Netherlands.
RSV clinical isolates were obtained from Baylor University and Medical College of Wisconsin. MOI of 0.1 used for all clinical isolates except RSV-A 629-9-2 (0.01) and RSV-B 629-24/2007 (0.0044) due to low titer. Virospot reduction assay was run by ViroClinics (Rotterdam, the Netherlands) against 20 additional RSV clinical isolates.

[12] = test system: RSV-A Long; assay: Time-of-addition study, CPE endpoint; format: cell-based, respiratory syncytial virus; details: for EC50: human respiratory syncytial virus, read-out: EC50 for cytoprotection
Protocol: In order to help determine which step of the viral life cycle EDP-938 blocks multiple in vitro time-of-addition studies were performed. In the first study, EDP-938 was administered to cells infected with RSV-A Long at a MOI of 0.1 at 2 hours pre-infection (-2) or 2, 6, or 24 hours post-infection (hpi), and viral CPE evaluated 5 days later. […] A second time-of-addition study explored the ability of EDP-938 to protect not just a population experiencing a spreading infection, but individual cells already infected with RSV. Using a MOI of 3, which infects approximately 95% of all cells, virus was cold-adsorbed to the cells for 1 hour to synchronize infection before transfer to 37°C to induce fusion (marking the 0 hpi time point). Compound was added at times indicated and a 24 hpi RT-qPCR endpoint was employed to constrain viral replication cycle to a single complete cycle.
As above, but 8,000 HEp-2 cpw seeded 1-day pre-infection. 2h pre-infection compound or media added. Plates incubated 2h. Viral infection at 0.1 MOI, incubated 1h. Viral inoculum removed, cells washed, and media replaced with compound for -2h sample. Compound added at 2h, 6h, and 24h post-infection to appropriate plates. 5dpi cell viability calculated as described above.

[13] = test system: RSV mRNA transcription and genome replication; assay: RSV minigenome system; format: cell-based, respiratory syncytial virus
[14] = test system: recombinant RSV A2-line19F, N protein mutants
[15] = 144 h, RSV-B VR-955 MOI 0.5, 6 days

## O=C1Nc2ccccc2C(c2ccccc2)=N[C@@H]1Nc1nnc(-c2ncc(C(F)(F)F)cc2N2CCOCC2)o1 [EDP-938]
[1]; 120 h, RSV-A Long MOI 0.1, 5 days, read-out: EC50
  EC50: 89 ± 16 nM
[1]; RSV-A Long
  EC90: 91 ± 62 nM
[2]
  EC50: 28 ± 4 nM
  EC90: 34 ± 10 nM
[3]; [15]
  EC50: 110 ± 22 nM
[3]; RSV-B VR-955
  EC90: 140 ± 24 nM
[4]; [15]
  EC50: 72 ± 9 nM
[4]; RSV-B VR-955
  EC90: 223 ± 90 nM
[5]
  EC50: 33 ± 7 nM
  EC90: 44 ± 18 nM
[6]
  EC50: 91 nM
  EC90: 101 ± 1.7 nM
[7]; 144 h, RSV-A M37 MOI 0.1, 6 days
  EC50: 23 ± 14 nM
[7]; RSV-A M37
  EC90: 36 ± 17 nM
[8]; 144 h, RSV-A Long MOI 0.1, 6 days
  EC50: > 800 nM
[8]; RSV-A Long
  EC90: > 800 nM
[9]
  activity against a broad panel of other viruses: did not demonstrate significant activity
[10]
  EC50: 76 nM
[11]
  EC50: 43 nM
[12]; 120 h, compound addition at -2 h, HEp-2, RSV-A Long MOI 0.1, CPE 5 days
  EC50: 49 nM
[12]; compound addition at 2 h post-infection
  EC50: 55 nM
[12]; compound addition at 6 h post-infection
  EC50: 76 nM
[12]; compound addition at 24 h post-infection
  EC50: 66 nM
[12]; when given up to 24 hpi, RSV-A Long MOI 0.1
  cytoprotective activity maintained: about 80%
[13]
  effect on mRNA transcription or genome replication: had no effect
[14]; recombinant RSV N K107N
  EC50 Fold Change vs. WT: 1.2 fold
[14]; recombinant RSV N K136R
  EC50 Fold Change vs. WT: 2.7 fold
[14]; recombinant RSV N L139I
  EC50 Fold Change vs. WT: 7.2 fold
[14]; recombinant RSV N M109I
  EC50 Fold Change vs. WT: 1.6 fold
[14]; recombinant RSV N M109K
  EC50 Fold Change vs. WT: 26.9 fold
[14]; recombinant RSV N M109T
  EC50 Fold Change vs. WT: 5.4 fold
[14]; recombinant RSV N N105D
  EC50 Fold Change vs. WT: 1.3 fold
[14]; recombinant RSV N S134T
  EC50 Fold Change vs. WT: 2.2 fold
[14]; recombinant RSV N V90A
  EC50 Fold Change vs. WT: 1.0 fold
[14]; recombinant RSV Wild-type (WT)
  EC50 Fold Change vs. WT: 1.0 fold
